# Reference: US20240287614A1, “RECIPROCAL MICRORNA-MRNA PAIRINGS AS BIOMARKERS AND THERAPEUTIC TARGETS IN CANCER” (UNIVERSITY OF MARYLAND, EASTERN SHORE, priority 2023, published 2024)
# Columns and labels:
# HIF1A [1] = test: RT-qPCR of HIF1A expression after miRNA mimic transfection; type: cell-based, human; conditions: African American and European American prostate cancer cells; vs nonsense/scrambled (NS) miRNA control
# Experimental: (§1) […] RC77 T/E, a primary prostate cancer cell line derived from a patient, was kindly provided by Dr. Johng Rhim at Center for Prostate Disease Research (CPDR) in Rockville, MD. LNCaP and PC-3 were served as prostate cancer cell line models, and RC77 T/E and MDA PCa 2b were served as prostate cancer cell models in the study. The cells were cultured in specific cell culture media, LNCaP was cultured in RPMI with 10% fetal bovine serum (FBS), PC-3 was cultured in DMEM with 10% FBS, MDA PCa 2b were cultured in BRFF-HPC1 with 20% FBS and RC77 T/E was cultured in Keratinocyte SFM with Human Recombinant Epidermal Growth Factor (EGF 1-53) and Bovine Pituitary Extract (BPE). Cells were maintained at 37° C. in a 5% CO2 incubator. LNCaP, PC-3 and MDA PCa 2b cells were seeded at density 3×10^4 cells/well in 6-well plates. RC77 T/E cells were seeded at density 5×10^4 cells/well in 6-well plates. […]
# (§2) For the measurement of gene expression level, total RNA was isolated using miRNeasy Mini Kit (50) (Qiagen) from the prostate cancer cells used in the study. Quantification of total RNA samples were done using NanoVue Plus spectrophotometer (GE Healthcare). […] Reverse transcription was performed using iScript Reverse Transcription Supermix kit (Bio-Rad) to generate cDNA then followed by performing quantitative PCR (qPCR) assays using SsoAdvanced Universal SYBR Green supermix kit (Bio-Rad). […]
# PI3Kβ = test: Western blot of PI3Kβ in transfected prostate cancer cells; type: cell-based, human; conditions: mimic transfected vs NS transfected
# Experimental: as §1
# (§3) For measurement of the gene expression at protein level, proteins were extracted using M-PER Mammalian Protein Extraction Reagent (Thermo Fisher Scientific) with protease and phosphatase inhibitor cocktail (Thermo Fisher Scientific). Protein concentrations were quantified using BCA assay kit (Thermo Fisher Scientific). […]
# [2] = tested on: prostate cancer (LNCaP and PC-3) and prostate cancer (RC77 T/E and MDA PCa 2b) cell lines; test: Caspase 3/7 activity-based apoptosis assay, prostate cancer cell lines; parameters: species or system human; conditions: for apoptosis (caspase 3/7 activity), docetaxel treatment alone: without miRNA mimic/antagomir transfection
# Experimental: […] RC77 T/E, a primary prostate cancer cell line derived from a patient, was kindly provided by Dr. Johng Rhim at Center for Prostate Disease Research (CPDR) in Rockville, MD. LNCaP and PC-3 were served as prostate cancer cell line models, and RC77 T/E and MDA PCa 2b were served as prostate cancer cell models in the study. The cells were cultured in specific cell culture media, LNCaP was cultured in RPMI with 10% fetal bovine serum (FBS), PC-3 was cultured in DMEM with 10% FBS, MDA PCa 2b were cultured in BRFF-HPC1 with 20% FBS and RC77 T/E was cultured in Keratinocyte SFM with Human Recombinant Epidermal Growth Factor (EGF 1-53) and Bovine Pituitary Extract (BPE). Cells were maintained at 37° C. in a 5% CO2 incubator. LNCaP, PC-3 and MDA PCa 2b cells were seeded at density 3×10^4 cells/well in 6-well plates. RC77 T/E cells were seeded at density 5×10^4 cells/well in 6-well plates. The cells were allowed to grow for 24 h and then were either transfected with miR-34a-5p mimic, miR-99b-5p mimic, or miR-96-5p antagomir using DharmaFECT4 transfection reagent (Dharmacon), according to the manufacturer's protocol. After 24 h, the cells were replaced with fresh media then incubated for 24 h. miR-34a-5p mimic, miR-99b-5p mimic, miR-96-5p antagomir, and nonsense miRNA mimic and antagomir controls were purchased from Ambion. Nonsense/scrambled miRNA mimic and antagomir were used as negative controls.
# For the measurement of apoptosis initiation by transfection of miRNA mimic or antagomir in prostate cancer cells, the transfected cells 5000 cells/well were seeded onto 96-well cell culture plates (Corning) and then incubated overnight. The miRNA mimic/antagomir transfected cells were then treated with vehicle or […] of Docetaxel. 24 h after the vehicle or drug treatment, the apoptosis assays were performed using Apo-ONE Caspase-3/7 Assay Kit (Promega Corporation) according to the protocol described by the manufacturer. 100 μL of homogeneous Caspase-3/7 reagent was added to the sample plate and incubated at room temperature for 1 h. Fluorescence was detected for measuring the apoptosis state (Caspase 3/7 activity) using Biotek Synergy HT Microplate Reader (BioTek) at wavelengths of 499 nm and 521 nm for excitation and emission, respectively.
# IGFBP2 [3] = test: Western blot of IGFBP2 in transfected prostate cancer cells; type: cell-based, human; conditions: mimic transfected vs NS transfected
# Experimental: as §1, §3
# [4] = tested on: prostate cancer (LNCaP and PC-3) and prostate cancer (RC77 T/E and MDA PCa 2b) cell lines; test: BrdU-labeling cell proliferation assay; type: cell-based, human; conditions: PC-3, RC77 T/E and MDA PCa 2b, 48 h transfection, vs NS
# Experimental: as §1
# LNCaP, PC-3, RC77 T/E and MDA PCa 2b cells were seeded at density 3×10^4 cells/well in 6-well culture plates. […] 100 μL of stop solution was used to stop further reaction and followed by checking absorbance at dual wavelengths of 450 nm and 540 nm using Multiskan FC microplate photometer (Thermo Scientific).
# IGFBP2 [5] = test: RT-qPCR of IGFBP2 expression after miRNA mimic transfection; type: cell-based, human; conditions: African American and European American prostate cancer cells; vs nonsense/scrambled (NS) miRNA control
# Experimental: as §1, §2
# PIK3CB = test: RT-qPCR of PIK3CB expression after miRNA mimic transfection; type: cell-based, human; conditions: African American and European American prostate cancer cells; vs nonsense/scrambled (NS) miRNA control
# Experimental: as §1, §2
# HIF1A [6] = test: Western blot of HIF1a in transfected prostate cancer cells; type: cell-based, human; conditions: mimic transfected vs NS transfected
# Experimental: as §1, §3
# [7] = RC77 T/E and MDA PCa 2b, 11 mM of Docetaxel, 24 h
compound,measurement,setting,value
"miR-34a-5p mimic: miRNA mimic of miR-34a-5p (SEQ ID NO: 1, UGGCAGUGUCUUAGCUGGUUGU), purchased from Ambion (listed as RNA, chemistry not given here; listed as Homo sapiens)",HIF1A expression (RT-qPCR),HIF1A [1],decreased
same,PI3Kβ protein level (Western blot),PI3Kβ,downregulated
same,"docetaxel-induced cytotoxicity (caspase 3/7 activity), combination with docetaxel","[2]; LNCaP cells, 11 mM of Docetaxel, 24 h",further enhanced
same,"apoptosis (caspase 3/7 activity), transfection in the presence of docetaxel",[2]; [7],significantly induced apoptosis
same,cell apoptosis (caspase 3/7 activity) compared with NS transfected cells,"[2]; absence of docetaxel (vehicle control), LNCaP, PC-3, RC77 T/E, MDA PCa 2b",overall generalized or significant increase
same,IGFBP2 protein level (Western blot),IGFBP2 [3],downregulated
same,cell proliferation (BrdU labeling),[4],reduction
same,IGFBP2 expression (RT-qPCR),IGFBP2 [5],decreased
same,PIK3CB expression (RT-qPCR),PIK3CB,decreased
same,HIF1a protein level (Western blot),HIF1A [6],downregulated
"CC(=O)O[C@@]12CO[C@@H]1C[C@H](O)[C@@]1(C)C(=O)[C@H](O)C3=C(C)[C@@H](OC(=O)[C@H](O)[C@@H](NC(=O)OC(C)(C)C)c4ccccc4)C[C@@](O)([C@@H](OC(=O)c4ccccc4)[C@H]21)C3(C)C [docetaxel, reference compound]","apoptosis (caspase 3/7 activity), docetaxel treatment alone","[2]; LNCaP, 11 mM of Docetaxel, 24 h",significantly induced apoptosis
same,"apoptosis (caspase 3/7 activity), docetaxel treatment alone",[2]; [7],not
same,"apoptosis (caspase 3/7 activity), docetaxel treatment alone","[2]; androgen-independent PC-3, 11 mM of Docetaxel, 24 h",not
